# Source: patent US20150359798A1, “PIPERAZINYL DERIVATIVE REDUCES HIGH-FAT DIET-INDUCED ACCUMULATION OF FAT IN THE LIVERS, […]” (priority 2011, published 2015)
# How the values were obtained:
# ROCK II = ROCK II expression in liver of HFD mice (8 weeks); type: in vivo; conditions: animals treated with HFD
# Procedure: In the 8 week experiment, C57BL/6J male mice (21-22 g), after fasting, were fed a HFD as a model of hyperlipidemia for 8 weeks. During the 2 month experiments, mice fasted for one night before the experiment was changed from a standard diet (STD) to a HFD and then the mice were randomly divided into 5 groups, including 2 control and 3 treatment groups. Six mice were used in each group. […] Liver from the protection group supplemented with KMUP-1 HCl (1 mg/kg/day) were used to determine the HMG CoA reductase expression.
# (§1) For the expression of SR-B1, HMGR, PPARγ and ROCK isolated liver tissues were cut into small chips and placed into an extraction buffer (Tris 10 mM, pH 7.0, NaCl 140 mM, PMSF 2 mM, DTT 5 mM, NP-40 0.5%, pepstatin A 0.05 mM and leupeptin 0.2 mM) for hepatic protein extraction, and centrifuged at 20,000 g for 30 minutes. The obtained protein extract was boiled to a ratio of 4:1 with a sample buffer (Tris 100 mM, pH 6.8, glycerol 20%, SDS 4% and bromophenol blue 0.2%). Electrophoresis was performed using 10% SDS-polyacrylamide gel (1 hour, 100 V, 40 mA, 20 μg protein per lane).
# Separated proteins, after 3 repeated centrifugations to discard up-layer tissue lipid inpurity, were transferred to PVDF membranes treated with 5% fat-free milk powder to block the nonspecific IgGs (90 minutes, 100 V) and incubated for 1 hour with specific protein antibody. […]
# ABCA1 = ABCA1 expression in liver of HFD mice (8 weeks); type: in vivo; conditions: animals treated with HFD
# SR-B1 = experiment: HFD-induced hepatic SR-B1 expression (14-week experiment); type: in vivo, mice; conditions: drinking KMUP-1
# Procedure: (§2) In the 14-week experiment, mice were fed a HFD from week 1 to week 14. During the 3 month experiments, KMUP-1 HCl (2.5 mg) was added to 200 ml tap water and) and drink for 14 weeks or for the last 6 weeks on mice or obese mice fed HFD, separately. 5 mice had free access to drinking water from week 1 to week 14 (protective group) or from week 8 to week 14 (treatment group). Tap water was used to normalize mineral nutrition (Scheme A).
# as §1
# Separated proteins, after 3 repeated centrifugations to discard up-layer tissue lipid inpurity, were transferred to PVDF membranes treated with 5% fat-free milk powder to block the nonspecific IgGs (90 minutes, 100 V) and incubated for 1 hour with specific protein antibody. The blot was then incubated with anti-mouse or anti-goat IgG linked to alkaline phosphatase (1:1000) for 1 hour.
# PKG [1] = experiment: Hepatic PKG expression (14-week experiment); type: in vivo, mice; conditions: drinking KMUP-1; protection and treatment groups
# TNF-α = experiment: IHC staining of TNF-α in steatohepatitis liver; type: in vivo, mice; conditions: 2.5 mg/kg/day, 14 weeks (protection) and 6 weeks (treatment)
# Procedure: as §2
# (§3) For IHC of MMP-9/TNFα, HSL/p-HSL/ATGL and eNOS/IL-10, antigen retrieval of de-paraffinated sections was performed in Dako target retrieval solution, pH 9.0, in a vegetable steamer followed by the quenching of endogenous peroxidase activity with 3.0% H2O2 in methanol. Sections were then incubated with specific primary antibodies overnight at 4° C. in a humidified chamber. The antibodies used included rabbit polyclonal anti-eNOS (1:50 dilution) (Abcam, Cambridge, UK) or rabbit monoclonal anti-cleaved caspase-3 (1:50 dilution) (Cell Signaling, USA). The sections were then examined using a DAKO REAL EnVision™ Detection System kit (DAKO, Carpinteria, Calif.) and counterstained with hematoxylin. Images were obtained through a Nikon Eclipse TE200-S microscope.
# MMP-9 = experiment: IHC staining of MMP-9 in steatohepatitis liver; type: in vivo, mice; conditions: treatment and protection groups
# Procedure: as §2, §3
# HSL [2] = experiment: IHC staining of HSL in steatohepatitis liver; type: in vivo, mice; conditions: after treatment or protection
# Procedure: as §2, §3
# epididymal fat pads = experiment: H&E staining, weight and cell diameter of epididymal fat pads; type: in vivo, mice
# Procedure: as §2
# Mice liver and epididymal fat pads were cut and soaked in formalin, dehydrated through graded alcohols and embedded in paraffin. Specimens of liver tissues and epididymal fat pads fixed with formalin (4%) were embedded in paraffin for one hour at 4° C., cut into […] sections, and subjected to H&E staining before examination by light microscope. In heart tissues, the 4-μm-thick paraffin sections were cut from paraffin-embedded tissue blocks and de-paraffinized by immersion in xylene and rehydrated. The slices were then dyed with H&E. After gently rinsing with water, each slide was dehydrated through graded alcohols and finally soaked in xylene twice.
# eNOS = experiment: IHC staining of eNOS in epididymal fat pads; type: in vivo, mice; conditions: protection, 2.5 mg/kg/day
# Procedure: as §3
# HSL [3] = experiment: IHC staining of HSL in epididymal fat pads; type: in vivo, mice; conditions: protection, 2.5 mg/kg/day
# Procedure: as §3
# IL-10 = experiment: IHC staining of IL-10 in epididymal fat pads; type: in vivo, mice; conditions: protection, 2.5 mg/kg/day
# Procedure: as §3
# RhoA = RhoA translocation from cytosol to membranes in HepG2 cells; type: cell-based
# Procedure: (§4) HepG2 cells were treated with various concentrations of drugs for 24 hours. Reactions were terminated by washing twice with cold PBS, and the cells were then harvested, Proteins in the whole-cell lysate were homogenized in an ice-cold lysis buffer and a protease inhibitor (Sigma-Aldrich, St. Louis, Mo., U.S.A.). The homogenate was centrifuged at 90, 000 g for 15 minutes at 4° C., and supernatant was recovered as the total cellular protein. Cytosolic and membrane fractions of HepG2 cells were prepared using a. CNM (Cytosol Nuclear Membrane) compartment protein extraction kit (BioChain Institute Inc., Hayward, Calif., U.S.A.) according to the manufacturer's instructions. All of the fractionated protein solutions were stored at −80° C. until analysis. To measure the expression levels of proteins by drugs, the total cell protein was extracted after incubation with treatments for 24 hours and then Western blotting analysis was performed as described previously.
# PPARγ = PPARγ expression in HepG2 cells; type: cell-based
# Procedure: as §4
# PKG [4] = experiment: PKG expression and immunoreactivity in HepG2 cells; type: cell-based
# HSL [5] = experiment: HSL immunoreactivity in HepG2 cells; type: cell-based
# Rho-kinase = experiment: Table 3 Rho-kinase (% of control); type: cell-based; conditions: control group = 100 (%)
# p-HSL = experiment: Table 3 p-HSL (% of control); type: cell-based; conditions: control group = 100 (%)
structure (smiles),measurement,setting,value
"Cn1c(=O)c2c(ncn2CCN2CCN(c3ccccc3Cl)CC2)n(C)c1=O [KMUP-1, 7-[2-[4-(2-chlorophenyl)piperazinyl]ethyl]-1,3-dimethyl xanthine]",ROCK II in liver,ROCK II,inactivated
same,ABCA1 in liver,ABCA1,activated
same,HFD-induced hepatic SR-B1 expression,SR-B1,inhibit
same,hepatic PKG expression,PKG [1],promote
same,TNF-α immunohistochemistry on fatty liver slices,TNF-α,inhibited partial
same,"antibody response to MMP-9 (IHC, liver)",MMP-9,shaded by the treatment and almost disappeared in the protection group
same,"HSL (IHC, liver)",HSL [2],partly increased
same,epididymal fat pad weight,epididymal fat pads; 2.5 mg/kg/day for 14 weeks,significantly reduced
same,fat cell diameter,epididymal fat pads; 2.5 mg/kg/day for 14 weeks,significantly reduced
same,HFD-induced hypertrophy/hyperplasia of epididymal fat pads (H&E),"epididymal fat pads; protection, 2.5 mg/kg",inhibited
same,IHC staining of eNOS in epididymal fat pads,eNOS,inhibited
same,IHC staining of HSL in epididymal fat pads,HSL [3],increased
same,IHC staining of IL-10 in epididymal fat pads,IL-10,increased
same,translocation of RhoA from cytosol to membranes,RhoA,concentration-dependently inhibited
same,increase of PPARγ,PPARγ; HepG2,2-3 fold
same,expression of PPARγ,"PPARγ; HepG2, 10^−9-10^−5 M",increased
same,FPP- or GGPP-suppressed expression of PPARγ,"PPARγ; HepG2, KMUP-1 10^−9-10^−5 M with FPP or GGPP",reversed
same,PPARγ expression (FIG. 24C),"PPARγ; HepG2, simvastatin, KMUP-1, Y27632 10^−5M, C3 exoenzyme",increased
same,expression of PKG,"PKG [4]; 10, 20, 40 µM, in the presence of LDL (500 μg/mL)",increased
same,PKG immunoreactivity,PKG [4]; data not shown,not significantly affected
same,HSL immunoreactivity (green fluorescence),HSL [5],increased
same,Rho-kinase,Rho-kinase; 0.1 μM,82.8 ± 7.8%
same,Rho-kinase,Rho-kinase; 1.0 μM,78.4 ± 6.9%
same,Rho-kinase,Rho-kinase; 10 μM,75.8 ± 6.4%
same,p-HSL,p-HSL; 0.1 μM,120.7 ± 15.3%
same,p-HSL,p-HSL; 1.0 μM,138.6 ± 14.7%
same,p-HSL,p-HSL; 10 μM,144.6 ± 12.3%
